One assay relates to atrial flutter. The note with it: intravenous atropine and propranolol together; supine or upright position; cited from earlier work.
For a further assay, the system named is atrial flutter circuit. The assay is described as follows: Canine Y-shaped lesion model of sustained stable atrial flutter; reset-response measurement of cycle length, refractory period and excitable gap during neurotransmitter infusion with or without sotalol. It is filed as in vivo, dog. As for the experimental part: In a group of 13 open chest anaesthetised dogs, atrial flutter model was produced during baseline conditions around the tricuspid valve using a Y-shaped lesion in the intercaval area extending to the right atrial appendage. Atrial flutter was induced at the shortest effective refractory period site using fast pacing stimulation (S1S1) of 100-150 ms. This manoeuvre was repeated as much as necessary with more damage in the Y-shaped lesion model to achieve a sustained stable atrial flutter (>10 min) during the baseline conditions. In order to determine the excitable gap duration and composition during this sustained and stable atrial flutter, a diastole was scanned with a single premature extrastimulus, S1S2 (S1S2=]refractory period, flutter cycle length[) to define the atrial flutter circuit composition and duration (flutter cycle length=refractory period+excitable gap). Atrial flutter cycle length, atrial effective refractory period and duration of the excitable gap were then determined. Measures were repeated during a constant infusion into the right coronary artery of norepinephrine (15 μg/min) and acetylcholine (2 μg/min) allowing 15 min for recovery from norepinephrine effects. The effects of norepinephrine and acetylcholine at a constant plasma level of d-sotalol or d,l-sotalol (0.8 mg/kg+0.4 mg/kg/hr) were also studied in 2 different groups of chloralose anaesthetised dogs on the same electrophysiological parameters described above.
Atrial Flutter protocol: All experiments described were in accordance with institutional guidelines for animal experimentation. Fourteen mongrel dogs of either sex, weight 29-45 kg, were studied in the post-absorptive state. General anaesthesia was induced with sodium thiopental (25 mg/kg iv.) and maintained with chloralose (80 mg/kg iv. bolus supplemented by 20 mg/kg/hr maximum as needed). The dogs were intubated and ventilated (Harvard pump) with room air (10 breaths/min, tidal volume to achieve a maximum inspiratory pressure of 20 cm water) to maintain arterial pH 7.35-7.45 and PaO2>80 mm Hg. Arterial and venous cannulae were inserted in the left femoral artery and vein by direct cut down for blood pressure monitoring and drug administration, respectively. An additional venous cannulae was inserted in the right femoral vein or in the right internal jugular vein for blood sampling. Muscular relaxation was then induced with gallamine triethiodide (Flaxedil 100) 3 mg/kg intravenously. A right thoracotomy was performed via the fourth or fifth intercostal space and the pericardium was incised to provide access to the vena cava and the right atrium. […] A second line, extending from the first two-thirds of the way toward the tip of the right atrial appendage and parallel to 1-2 cm above the atrioventricular groove, was similarly incised and sewn over. Five close (2-4 mm) bipolar epicardial silver electrodes (insulated except at the tip) for stimulating and/or recording were sewn around the base of the right atrium within 1 cm of the tricuspid annulus. Three were positioned on the anterior surface and two on the posterior surface (Derakhchan K, et al., 1994). An arterial cannula was inserted in the right coronary artery for neurotransmitter infusion.
Measurement of electrophysiologic parameters: A single lead (II) surface electrocardiogram, atrial electrograms from each of the 5 bipolar electrodes, and the femoral arterial pressure were monitored and recorded using a Nihon Kohden polygraph (Model RM6008). Data were also stored on a Hewlett-Packard tape recorder. Atrial flutter was induced by burst stimulation (20-30 beats at basic cycle length <100 ms). During stable flutter (cycle length variation <10 ms), a premature stimulus was introduced at the site located on this re-entry circuit after every 20th spontaneous beat (T) in 2 ms decrements beginning at coupling intervals equal to the cycle length of this atrial tachycardia. […]

In another assay the test system is atrial fibrillation. The assay is described as follows: Canine atrial fibrillation model with vagal and stellar ganglion denervation/stimulation (ERP duration and dispersion, conduction velocity, wavelength, AF duration). The format is in vivo, dog. The following applies: vagal stimulation in the presence of class III drug therapy. An excerpt:
In a group of 14 anaesthetised open chest dogs, atrial fibrillation was induced by fast pacing and up to 10 attempts of arrhythmia initiations during baseline condition, vagal denervation, right and left vagal stimulation #1 (1 Hz, 0.1 ms), right and left stellar ganglions denervation, right and left vagal stimulation #2 (1 Hz, 0.1 ms), right and left stellar ganglions stimulation (10 Hz, 2 ms), and right and left vagal stimulation (1 Hz, 0.1 ms) associated with right and left stellar ganglions stimulation (10 Hz, 2 ms). Under the same conditions described above, the effective refractory period duration and dispersion (at S1S1=200 ms), the conduction velocity and the wavelength are determined. Atrial fibrillation occurrence was evaluated by the mean duration of 10 atrial fibrillation episodes at baseline (for a group of animals when none of the 10 atrial fibrillation episodes at baseline were lasting more than 3 minutes) and following each of the conditions described above. […]
Activation Mapping: Five thin plastic sheets containing 112 bipolar electrodes with 1 mm interpolar and 6 mm interelectrode distances were sewn into position on atrial epicardial surface. […] Each electrogram was analyzed with computer-determined peak-amplitude criteria and was reviewed manually. […] Isochrone maps and activation times for each activation were recorded by the use of IBM ink jet printer. […]

Assay [1] has as its system common human atrial flutter. The note with it: cited from earlier work.
The mark [2] stands for this setting: d,l-sotalol group, 7 dogs, NE 15 μg/min, ACh 2 μg/min into right coronary artery, d,l-sotalol 0.8 mg/kg+0.4 mg/kg/hr.
[3] abbreviates: d-sotalol group, 6 dogs, NE 15 μg/min, ACh 2 μg/min into right coronary artery, d-sotalol 0.8 mg/kg+0.4 mg/kg/hr.

Structures are written as SMILES. Where “and” joins values, the source holds several entries; their conditions need not be identical. Equal values may be shown once.

On to `CN1[C@@H]2CC[C@H]1C[C@@H](OC(=O)C(CO)c1ccccc1)C2` (stereo partly shown) [atropine], for which the “effect on atrial flutter cycle length” value with atrial flutter is given as “did not change”.

Take `NC[C@H](O)c1ccc(O)c(O)c1` [NE, norepinephrine]: in the assay on atrial flutter circuit (setting [2]), the “Atrial Effective Refractory Period (AERP), mean” value is 93 ± 7 ms and 93.0000 ms and 93.0 ms; the “Atrial Flutter Cycle Length (AF1CL), mean” value is 132 ± 8 ms and 131.7500 ms and 131.8 ms. In the assay on atrial flutter circuit (setting [3]), the “Atrial Flutter Cycle Length (AF1CL), mean” value was 133 ± 12 ms and 133.0000 ms and 133.0 ms. Moreover, the “reversal of d-sotalol effects on atrial flutter cycle length and effective refractory period duration” value with atrial flutter circuit (in the presence of d-sotalol) was “significantly reversed”. In the assay on atrial flutter circuit (infusion alone, d-sotalol group, 6 animals), the “effect on effective refractory period duration” value is reported as “significantly shortened”. Besides, the “occurrence of the initiation of atrial flutter” value in the assay with atrial flutter circuit (neurotransmitter infusion, acetylcholine>>norepinephrine) is listed as “significantly increased”.

In the case of `CC(C)NCC(O)c1ccc(NS(C)(=O)=O)cc1` (racemic) [d,1-S, d,l-Sotalol], the “Atrial Flutter Cycle Length (AF1CL), mean” value in the assay with atrial flutter circuit (setting [2]) worked out at 143.0 ms. Besides, in the assay on atrial fibrillation, the “antiarrhythmic therapeutic effects under vagal stimulation” value is “significantly and markedly reversed”.

Turning to `CC(C)NCC(O)COc1cccc2ccccc12` (stereo not shown) [propranolol], the “effect on atrial flutter cycle length” value in the assay with atrial flutter is “did not change”.

`CC[N+](C)(C)c1cccc(O)c1` [edrophonium]: the “effect on monophasic atrial action potential duration or atrial flutter cycle length” value in assay [1] is on record as “no significant effect”.

For `CC(=O)OCC[N+](C)(C)C` [ACh, acetylcholine], in the assay with atrial flutter circuit (setting [2]), the “Atrial Effective Refractory Period (AERP), mean” value is 64 ± 4 ms and 63.6000 ms and 63.6 ms; the “Atrial Flutter Cycle Length (AF1CL), mean” value is 119 ± 17 ms and 119.0000 ms and 119.0 ms. For the same molecule, in the assay on atrial flutter circuit (setting [3]), the “Atrial Flutter Cycle Length (AF1CL), mean” value was 123 ± 15 ms and 122.6667 ms and 122.7 ms; the “Effective Refractory Period duration (ERPdur), mean” value was 65 ± 5 ms and 64.8000 ms and 64.8 ms; the “Excitable Gap duration (EGdur), mean” value was 48 ± 16 ms and 47.6000 ms and 47.6 ms.

The record behind these values is patent USRE42961E1, “Use of autonomic nervous system neurotransmitters inhibition and atrial parasympathetic fibers ablation for the treatment of atrial arrhythmias and to preserve drug effects” (St. Jude Medical, Atrial Fibrillation Division, Inc., priority 2000, dated 2011).
